Source: patent publication US20230114811A1, “GLYCOSYLTRANSFERASES, POLYNUCLEOTIDES ENCODING THESE AND METHODS OF USE” (THE NEW ZEALAND INSTITUTE FOR PLANT AND FOOD RESEARCH …, priority 2020, published 2023)
Values joined by “and” are separate entries in the source; they are usually repeats but may differ in a detail not shown here. Equal values may be shown once.

Assays:
[1] = test system: recombinant PGT2 cloned from M. toringoides; experiment: Substrate specificity of recombinant PGT2, UDP-glucoside as sugar donor, products determined by LC-MS/MS; assay type: biochemical; settings: amount of product formed relative to conversion of phloretin to trilobatin set at 100%
Protocol: The products of each reaction were determined by LC-MS/MS. […] Quercetin-3-O-glucoside was detected as a reaction product using quercetin (FIG. 8A-F) with a lower conversion rate of 9.1% (Table 7).

[2] = Isosweetness comparison test between trilobatin and sucrose (sensory panel); assay type: in vivo; settings: n=5 participants
Protocol: Five participants with high acuity for trilobatin in the triangle test were selected to perform the isosweetness comparison test between trilobatin and sucrose. Each participant was given one trilobatin solution and eight sucrose solutions at different concentrations to taste. Solutions were prepared as described above for the apple leaf teas. The trilobatin solutions were presented at 12.3, 18.5, 27.8 and 41.7 mg per 100 ml, while the sucrose solutions were presented at 296.3, 444.4, 592.6, 666.7, 888.9, 1000, 1333.3 and 2000 mg per 100 ml.

[3] = Jia et al., 2008; cited from earlier work
[4] = substrate: O=C(CCc1ccc(O)cc1)c1c(O)cc(O)cc1O; experiment: Km/Vmax determination for recombinant PGT2 (glycosyltransferase activity assay, HPLC); assay type: biochemical, M. toringoides; settings: other: phloretin 4-500 μM, fixed UDP-glucose 500 μM, pH 9.0, 0.1 M Tris-HCl, 40° C., 10 min

O=C(CCc1ccc(O)c(O)c1)c1c(O)cc(O)cc1O [3-OH phloretin]
Conversion (%) [1]: 58.7 ± 2.3%

O=C(O)/C=C/c1ccc(O)cc1 [4-coumaric acid]
Conversion (%) [1]: 0%

O=C(O)/C=C/c1ccc(O)c(O)c1 [caffeic acid]
Conversion (%) [1]: 0%

O=C(/C=C/c1ccc(O)c(O)c1)O[C@@H]1C[C@](O)(C(=O)O)C[C@@H](O)[C@H]1O [chlorogenic acid]
Conversion (%) [1]: 0%

O=C1C[C@@H](c2ccc(O)cc2)Oc2cc(O)cc(O)c21 [naringenin]
Conversion (%) [1]: 0%

COc1ccc([C@@H]2CC(=O)c3c(O)cc(O[C@@H]4O[C@H](CO)[C@@H](O)[C@H](O)[C@H]4O[C@@H]4O[C@@H](C)[C@H](O)[C@@H](O)[C@H]4O)cc3O2)cc1O [neohesperidin]
Conversion (%) [1]: 0%

O=C(CCc1ccc(O)cc1)c1c(O)cc(O)cc1O [phloretin, 3-(4-hydroxyphenyl)-1-(2,4,6-trihydroxyphenyl)propan-1-one]
Conversion (%) [1]: 100.0 ± 6.1%

O=c1c(O)c(-c2ccc(O)c(O)c2)oc2cc(O)cc(O)c12 [quercetin]
Conversion (%) [1]: 9.1% and 9.1 ± 0.1%

O=C(CCc1ccc(O)c(O)c1)c1c(O)cc(O[C@@H]2O[C@H](CO)[C@@H](O)[C@H](O)[C@H]2O)cc1O [sieboldin, 3-hydroxyphloretin-4′-O-glucoside]
Conversion (%) [1]: 0%

O=C(CCc1ccc(O)cc1)c1c(O)cc(O[C@@H]2O[C@H](CO)[C@@H](O)[C@H](O)[C@H]2O)cc1O [trilobatin, 1-[2,6-dihydroxy-4-[(2S,3R,4S,5S,6R)-3,4,5-trihydroxy-6-(hydroxymethyl)oxan-2-yl]oxyphenyl]-3-(4-hydroxyphenyl)propan-1-one]
Conversion (%) [1]: 0% | Isosweetness (trilobatin vs sucrose) ([2]; R^2=0.98, mean±SE): 35.2+1.66 | sweeter than sucrose ([2]; trilobatin purified from leaves of crabapple hybrid ‘Adams’): ~35 fold | sweeter than sucrose (reported) [3]: ~100 × | sweetness detection threshold [3]: 3 to 200 mg/L

B1: PGT2 (Malus toringoides) (protein)
chain: MEATAIVLYPSPLIGHLVSMVELGKLILTRHPSLCIHILITTPPYRANDTDSYITSVSAANPSLIFHHLPTISLPPSLASSRNHEILAFELAPLYNPNVHQALVSISHNFSIKAFVMDFFCYVGLPVATELNIPSYFFFTSSANTLASSLYLPTLHNIIDKSLKDLNILLNIPGVPPMPSSDMPQPTLDRNQKVYEHVQGSSKQFPKSAGIIVNTFESLEPRALRAIWDGLCLPENVPTPPVYPIGPLIVSHGGGGRGAECLKWLDSQPSGSVVFLCFGSLGLFSKEQLKEIAIGLENSGHRFLWVVRNPPAQNQIGLDIKESDPELKSLLPDGFLDRTKDRGLVVKSWAPQAAVLNHNSVGGFVSHCGWNSVLESVCAGVPIVAWPLYAEQRFNRVVLVKEIKIAMPMNESEDGFVRAAEVEKRITELMDSEEGASIRKRTKDLQNNAHAALGETGSSGVALTKLLEFWGKTC
Km [4]: 18.0 ± 6.7 µM | Vmax [4]: 1.85 ± 0.17 nmol/min
